Test results as given in patent US7601713B2, “Kinase inhibitors and their uses” (Rigel Pharmaceuticals, Inc., priority 2005, dated 2009).

Columns and labels:
[1] = test system: JAK kinases (JAK1 and JAK3); test: JAK inhibition: IL-4-stimulated CD23 upregulation in human Ramos B-cells, FACS; type: cell-based; conditions: IL-4 stimulated Ramos B-cells, read-out: IC50, inhibition of JAK kinases in cellular assay
Description: JAK inhibition was tested in human Ramos B-cells activated with IL-4. Twenty to 24 hours post stimulation, the cells are stained for upregulation of CD23 and analyzed by FACS. Stimulation of the B-cells with IL-4 leads to the activation of the JAK/STAT pathway through phosphorylation of the JAK kinase JAK1 and JAK3, which in turn phosphorylate and activate transcription of factor […].
For the assay, human Ramos B-cells (ATCC, Catalog No. CRL-1596) are cultured in RPMI 1640 medium (Cellgro, Catalog No. 10-040-CM) containing 10% fetal bovine serum (JRH, Catalog No. 12106-500M) according to the propagation protocol supplied with the cells, and maintained at a density of approximately 3.5×10^5 cells/ml. The day before the assay, the cells are diluted to 3.5×10^5 cells/ml to insure they are in the logarithmic growth phase. The cells are spun down, and suspended in RPMI 1640 medium containing 5% fetal bovine serum to a density of 3.5×10^4 cells/ml and aliquots dispensed into a 96-well tissue culture plate. Cells are incubated with test compound (dissolved in DMSO) or DMSO (control) for 1 hr at 37° C. and then stimulated with IL-4 (Pepotech, Catalog No. 200-04) for 20-24 hours (final concentration is 50 Units/ml). Cells are then spun down, stained with anti-CD23-PE antibody (BD Pharmigen, Catalog No. 555711) and analyzed by FACS.

Axl kinase = target: T1, Axl kinase (Homo sapiens, UniProt P30530); test: Phospho-Akt in-cell Western assay (Axl antibody cross-linking, Hela cells); type: cell-based; conditions: phospho-Akt readout, read-out: IC50, inhibition of Axl kinase
T1 construct: endogenous in cells; host or cells: HeLa cells
T1 sequence (P30530 26-894): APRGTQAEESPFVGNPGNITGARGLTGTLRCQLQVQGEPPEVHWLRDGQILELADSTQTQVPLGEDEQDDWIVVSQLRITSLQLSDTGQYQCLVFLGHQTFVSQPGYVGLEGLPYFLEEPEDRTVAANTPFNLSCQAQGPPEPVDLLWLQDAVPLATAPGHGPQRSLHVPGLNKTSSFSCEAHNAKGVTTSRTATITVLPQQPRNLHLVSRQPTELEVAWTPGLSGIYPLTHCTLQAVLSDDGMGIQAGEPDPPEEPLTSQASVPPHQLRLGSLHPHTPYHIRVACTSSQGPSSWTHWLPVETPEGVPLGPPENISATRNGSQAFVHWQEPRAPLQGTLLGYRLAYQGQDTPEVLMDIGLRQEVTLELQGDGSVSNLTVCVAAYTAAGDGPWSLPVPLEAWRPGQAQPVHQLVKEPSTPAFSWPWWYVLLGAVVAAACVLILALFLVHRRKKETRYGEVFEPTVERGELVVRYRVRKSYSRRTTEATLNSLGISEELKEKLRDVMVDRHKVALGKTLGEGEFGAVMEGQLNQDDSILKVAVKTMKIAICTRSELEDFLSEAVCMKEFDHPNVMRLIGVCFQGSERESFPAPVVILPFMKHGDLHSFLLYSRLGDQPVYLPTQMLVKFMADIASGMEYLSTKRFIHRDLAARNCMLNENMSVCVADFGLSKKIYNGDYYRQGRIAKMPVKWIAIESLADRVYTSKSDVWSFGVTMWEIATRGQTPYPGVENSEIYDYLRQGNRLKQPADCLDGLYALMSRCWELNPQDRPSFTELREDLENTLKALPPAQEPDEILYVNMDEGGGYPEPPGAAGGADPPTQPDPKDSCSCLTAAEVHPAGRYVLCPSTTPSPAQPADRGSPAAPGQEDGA
Description: The compounds of the invention were tested in the following assay for their ability to inhibit Axl activity.
Phospho-Akt in-Cell Western Assay
Starvation medium: For Axl stimulation: 0.5% FCS (fetal calf serum) in DMEM, plus Axl/Fc (extracellular domain of AXL fused to immunoglobulin Fc region) (R&D, 154-AL) 500 ng/mL.
Axl antibody cross-linking: • 1st: Mouse anti-Axl (R&D, MAB 154). • 2nd: Biotin-SP-conjugated AffiniPure goat anti-mouse IgG (H+L) (Jackson ImmunoResearch #115-065-003).
Primary antibody: Rabbit anti-human Phospho-Akt antibody (Cell Signaling 9271): 1×250 diluted in blocking buffer.
Secondary antibody: HRP (horse radish peroxidase)-conjugated Goat anti-Rabbit secondary, stock solution: Jackson lmmunoResearch (Goat anti-Rabbit HRP, #111-035-144) 1:1 diluted in glycerol, store at −20° C. The working solution: 1×2000 dilution of stock in blocking buffer.
A 96 well TC (tissue culture treated) plate was coated with 10 μg/mL poly-L-Lysine at 37° C. for 30 min, washed twice with PBS, and air-dried for 5 minutes before cells were added. Hela cells were seeded at 10,000 cells/well and the cells were starved in 100 μL starvation medium containing Axl/Fc for 24 hrs.
The cells were pre-treated with test compounds by adding 100 μL of 2× test compound to the starvation medium on the cells. The cells were incubated at 37° C. for 1 hr before stimulation.
The cells were stimulated by Axl-antibody cross-linking as follows: A 5× 1st/2nd Axl antibody mixture was made (37.5 μg/mL 1st/100 μg/mL 2nd) in starvation medium and nutated at 4° C. with thorough mixing for 1-2 hours for clustering. The resulting mix was warmed to 37° C. 50 μL of 5× Axl 1st/2nd of antibody cluster was added to the cells and the cells were incubated at 37° C. for 5 min.
After 5 minutes stimulation, the plate was flicked to remove medium and the plate was tapped onto paper towels. Formaldehyde (4.0% in PBS, 100 μL) was added to fix the cells and the cells were incubated at ambient temperature for 20 min without shaking.
The cells were washed with a plate washer buffer to remove the formaldehyde solution. The plate was flicked to remove excess wash buffer and tapped onto paper towels. Quenching buffer (100 μL) was added to each well and the cells were incubated at ambient temperature for 20 minutes without shaking.
The cells were washed with a plate washer buffer to remove the quenching buffer. Blocking buffer (100 μL) was added and the cells were incubated at ambient temperature for at least an hour with gentle shaking.
The cells were washed with a plate washer buffer and diluted primary antibody (50 μL) was added to each well (blocking buffer was added to the negative control wells instead). The plates were incubated overnight at 4° C. with gentle shaking.
The wash buffer was removed, diluted secondary antibody (100 μL) was added, and the cells were incubated at ambient temperature for 1 hour with gentle shaking. During the incubation, the chemiluminescent reagent was brought to ambient temperature.
The secondary antibody was removed by washing the cells 1× with wash buffer, 1× with PBS by plate washer. The PBS was removed from the plate and the chemiluminescent reagent (80 μL: 40 μL A and 40 μL B) was added to each well at ambient temperature.
The resulting chemiluminescence was read with a Luminomitor within 10 minutes to minimize changes in signal intensity. After reading the chemiluminescence, the cells were washed 1× with wash buffer and 1× with PBS by plate washer. The plate was tapped onto paper towels to remove excess liquid from wells and air-dried at ambient temperature for 5 minutes.
Crystal Violet working solution (60 μL) was added to each well and the cells were incubated at ambient temperature for 30 min. The crystal violet solution was removed, and the wells were rinsed with PBS, then washed 3× with PBS (200 μL) for 5 minutes each.
5% SDS solution (70 μL) was added to each well and the cells were incubated on a shaker for 30 min at ambient temperature. […]

| Compound | IC50 [1] | IC50 (Axl kinase) |
| --- | --- | --- |
| COc1cc2nc(Nc3cccc(O)c3)nc(NC3C4C=CC(C4)C3C(N)=O)c2cc1OC (racemic) [Compound 101, Racemic-(2-exo,3-exo)-N4-(3-aminocarbonylbicyclo[2.2. 1]hept-5-en-2-yl)-6,7-dimethoxy-N2-(3-hydroxy)phenyl-2,4-quinazoline-diamine] | < 5 µM | – |
| NC(=O)C1C2C=CC(C2)C1Nc1nc(Nc2cccc(O)c2)nc2ccccc12 (racemic) [Compound 102, Racemic-(2-exo,3-exo)-N4-(3-aminocarbonylbicyclo[2.2. 1]hept-5-en-2-yl)-N2-(3-hydroxy)phenyl-2,4-quinazoline-diamine] | < 5 µM | – |
| NC(=O)c1cccc(Nc2nc(NC3C4C=CC(C4)C3C(N)=O)c3nc[nH]c3n2)c1 (racemic) [Compound 122, Racemic-(2-exo,3-exo)-N6-(3-aminocarbonylbicyclo[2.2. 1]hept-5-en-2-yl)-N2-(3-aminocarbonyl)phenyl-1H-purine-2,6-diamine] | < 5 µM | – |
| NC(=O)C1C2C=CC(C2)C1Nc1nc(Nc2ccc3c(c2)OCO3)nc2[nH]cnc12 (racemic) [Compound 125, Racemic-(2-exo,3-exo)-N6-(3-aminocarbonylbicyclo[2.2. 1]hept-5-en-2-yl)-N2-(1,3-benzodioxol-5-yl)-1H-purine-2,6-diamine] | > 10 µM | – |
| Cc1cc2cc(Nc3nc(NC4C5C=CC(C5)C4C(N)=O)c4nc[nH]c4n3)ccc2[nH]1 (racemic) [Compound 150, Racemic-(2-exo,3-exo-)-N6-(3-aminocarbonylbicyclo[2.2. 1]hept-5-en-2-yl)-N2-(2-methyl-1H-indol-5-yl)-1H-purine-2,6-diamine] | > 10 µM | – |
| NC(=O)C1C2CCC(C2)C1Nc1nc(Nc2ccc(N3CCCCC3)cc2)nc2[nH]ccc12 (racemic) [Compound 168, Racemic-(2-exo,3-exo) N4-(3-aminocarbonylbicyclo[2.2. 1]hept-2-yl)-N2-[4-(piperidin-1-yl)phenyl]-1H-pyrrlol[2,3-d]pyrimidine-2,4-diamine] | > 10 µM | – |
| NC(=O)C1C2C=CC(C2)C1Nc1nc(Nc2cccc(OCc3ccncc3)c2)nc2[nH]ccc12 (racemic) [Compound 223, Racemic-(2-exo,3-exo)-N4-(3-aminocarbonylbicyclo [2.2.1]hept-5-en-2-yl)-N2-[3-(4-pyridinylmethoxy)] phenyl-1H-pyrrolo[2,3-d]pyrimidine-2,4-diamine] | > 10 µM | < 10 µM |
| NC(=O)C1C2C=CC(C2)C1Nc1nc(Nc2cccc(OCc3ccncc3)c2)nc2[nH]cnc12 (racemic) [Compound 224, Racemic-(2-exo,3-exo-)-N6-(3-aminocarbonylbicyclo [2.2.1]hept-5-en-2-yl)-N2-[3-(4-pyridinylinethoxy)] phenyl-1H-purine-2,6-diamine] | > 10 µM | < 10 µM |
| NC(=O)C1C2C=CC(C2)C1Nc1nc(Nc2cccc(OCc3cccnc3)c2)nc2[nH]ccc12 (racemic) [Compound 225, Racemic-(2-exo,3-exo)-N4-(3-aminocarbonylbicyclo [2.2.1]hept-5-en-2-yl)-N2-[3-(3-pyridinylmethoxy)] phenyl-1H-pyrrolo[2,3-d]pyrimidine-2,4-diamine] | > 10 µM | < 5 µM |
| NC(=O)C1C2C=CC(C2)C1Nc1nc(Nc2cccc(OCc3cccnc3)c2)nc2[nH]cnc12 (racemic) [Compound 226, Racemic-(2-exo,3-exo-)-N6-(3-aminocarbonylbicyclo [2.2.1]hept-5-en-2-yl)-N2-[3-(3-pyridinylmethoxy)phenyl]-1H-purine-2,6-diamine] | > 10 µM | < 5 µM |
| CONC(=O)C1C2C=CC(C2)C1Nc1nc(Nc2cccc(OC)c2)nc2[nH]ccc12 (racemic) [Compound 233, Racemic-(2-exo,3-exo)-N4-(N-methoxy-3-aminocarbonylbicyclo [2.2.1]hept-5-en-2-yl)-N2-(3-methoxyphenyl)-1H-pyrrolo[2,3-d]pyrimidine-2,4-diamine] | < 5 µM | < 5 µM |
| Cc1csc2c(NC3C4C=CC(C4)C3C(N)=O)nc(Nc3ccc(OCCN4CCCC4)cc3)nc12 (racemic) [Compound 240, Racemic-(2-exo,3-exo-)-7-methyl-N4-(3-aminocarbonylbicyclo [2.2.1]hept-5-en-2-yl)-N2-[4-[2-(1-pyrrolidinyl)ethoxy]phenyl]-thieno[3,2-d]pyrimidine-2,4-diamine] | < 5 µM | < 10 µM |
| Cc1csc2c(NC3C4C=CC(C4)C3C(N)=O)nc(Nc3ccc(OCCN4CCCC4)c(F)c3)nc12 (racemic) [Compound 241, Racemic-(2-exo,3-exo-)-7-methyl-N4-(3-aminocarbonylbicyclo [2.2.1]hept-5-en-2-yl)-N2-[3-fluoro-4-[2-(1-pyrrolidinyl)ethoxy]phenyl]-thieno[3,2-d]pyrimidine-2,4-diamine] | < 5 µM | < 5 µM |
| NC(=O)[C@@H]1[C@H](Nc2nc(Nc3ccc4[nH]ccc4c3)nc3[nH]cnc23)[C@H]2C=C[C@@H]1C2 [Compound 147, (1R,2R,3S,4S)-N6-(3-Aminocarbonylbicyclo[2.2. 1]hept-5-en-2-yl)-N2-(1H-indol-5-yl)-1H-purine-2,6-diamine] | < 5 µM | – |
